Structures are written as SMILES.

Test [1] concerns the target T1, NDM-1 (Klebsiella pneumoniae, UniProt C7C422). The experiment in a line: biochemical. The conditions noted are these: cleavage of imipenem (100 uM) by NDM-1; read-out: Ki, Imipenem.
Test [2] addresses T2, VIM-1 (Pseudomonas aeruginosa, UniProt A0A0F7KYQ8).
T2 construct: made in house; host or cells: ECM6711 strain carrying pUCP24-VIM-1 plasmid; culture supernatant used unpurified
The experiment in a line: biochemical. Particulars: cleavage of nitrocefin (200 uM) by VIM-1 supernatant.

The target of test [3] is T1, NDM-1. The experiment in a line: Inhibition of purified class B carbapenemase NDM-1 (Ki, imipenem substrate). It counts as biochemical. The conditions noted are these: NDM-1, substrate imipenem; read-out: Ki NDM-1, Imipenem.
Test [4] deals with purified class A, C and D enzymes (Enterobacter cloacae, UniProt P05364). In kind it is biochemical. Particulars: purified P99/AmpC of ECL; nitrocefin reporter substrate.
In test [5] the target is purified class A, C and D enzymes (Escherichia coli, UniProt Q9L5C7). It counts as biochemical. Particulars: purified CTX-M-14; nitrocefin reporter substrate.
The target in test [6] is T3, purified class A, C and D enzymes (UniProt P0AD64, L31Q/G234S/E235K, species not given).
T3 construct: Ki (SHV-12, NCF); other: purified SHV-12; nitrocefin reporter substrate
T3 sequence (P0AD64 1-286 L31Q/G234S/E235K): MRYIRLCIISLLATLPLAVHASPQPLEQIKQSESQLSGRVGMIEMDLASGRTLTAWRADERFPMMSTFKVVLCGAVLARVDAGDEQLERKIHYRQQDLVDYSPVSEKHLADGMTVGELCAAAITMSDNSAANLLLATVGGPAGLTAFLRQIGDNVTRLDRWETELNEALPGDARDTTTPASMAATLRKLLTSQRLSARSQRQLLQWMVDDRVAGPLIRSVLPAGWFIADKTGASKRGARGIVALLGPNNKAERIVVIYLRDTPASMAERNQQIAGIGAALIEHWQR
It counts as biochemical. The conditions noted are these: read-out: Ki (SHV-12, NCF); purified SHV-12; nitrocefin reporter substrate.

For test [7], the target named is T4, purified class A, C and D enzymes (UniProt Q6XEC0).
T4 construct: rows headed: Ki (OXA-48, NCF); other: purified OXA-48; nitrocefin reporter substrate
It counts as biochemical. Particulars: read-out: Ki (OXA-48, NCF); purified OXA-48; nitrocefin reporter substrate.

In test [8] the target is T5, purified class A, C and D enzymes (UniProt Q9F663).
T5 construct: rows headed: Ki (KPC-2, NCF); other: purified KPC-2; nitrocefin reporter substrate
In kind it is biochemical. Particulars: read-out: Ki (KPC-2, NCF); purified KPC-2; nitrocefin reporter substrate.

T1 sequence (C7C422 29-270, looked up, species assumed): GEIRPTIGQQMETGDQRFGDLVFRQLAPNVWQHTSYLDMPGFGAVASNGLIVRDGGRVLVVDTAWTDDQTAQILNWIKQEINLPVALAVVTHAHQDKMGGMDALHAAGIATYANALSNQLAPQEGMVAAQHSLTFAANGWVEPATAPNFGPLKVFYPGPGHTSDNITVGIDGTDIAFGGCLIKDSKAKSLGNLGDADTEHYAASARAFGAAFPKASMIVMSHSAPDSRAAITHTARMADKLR
Chain of purified class A, C and D enzymes (Enterobacter cloacae, UniProt P05364) (P05364 21-381): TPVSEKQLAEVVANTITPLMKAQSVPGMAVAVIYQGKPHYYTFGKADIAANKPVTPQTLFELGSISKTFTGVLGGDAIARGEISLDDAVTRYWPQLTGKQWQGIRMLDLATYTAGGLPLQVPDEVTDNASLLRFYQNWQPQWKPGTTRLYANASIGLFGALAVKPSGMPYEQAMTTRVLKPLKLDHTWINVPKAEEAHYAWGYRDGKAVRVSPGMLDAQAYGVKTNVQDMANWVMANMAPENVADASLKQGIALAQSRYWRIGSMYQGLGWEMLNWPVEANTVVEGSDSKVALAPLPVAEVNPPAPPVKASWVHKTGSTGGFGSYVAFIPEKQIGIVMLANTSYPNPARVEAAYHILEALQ
Chain of purified class A, C and D enzymes (Escherichia coli, UniProt Q9L5C7) (Q9L5C7 entry or part of it): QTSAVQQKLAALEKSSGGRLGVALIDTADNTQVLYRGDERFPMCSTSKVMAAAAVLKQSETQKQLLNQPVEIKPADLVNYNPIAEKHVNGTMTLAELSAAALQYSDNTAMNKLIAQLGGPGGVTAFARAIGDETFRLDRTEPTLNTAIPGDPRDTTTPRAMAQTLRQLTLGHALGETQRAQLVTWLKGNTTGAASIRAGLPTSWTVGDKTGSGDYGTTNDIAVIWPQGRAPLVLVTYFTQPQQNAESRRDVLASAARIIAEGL

In general, Ki refers to the equilibrium dissociation constant of an inhibitor or competing ligand from its target. For orientation: IC50 means the concentration that gives 50% inhibition. Read a low IC50 as greater potency. As for `N#CCOc1ccc2c(c1C(=O)O)OB(O)[C@@H](Sc1nncs1)C2` [Compound 86, (3R)-7-(cyanomethoxy)-2-hydroxy-3-(1,3,4-thiadiazol-2-ylsulfanyl)-3,4-dihydro-1,2-benzoxaborinine-8-carboxylic acid], the Ki is greater than 100 nM in test [1]; greater than 100 nM in test [3]; less than 100 nM in test [6]; less than 100 nM in test [7]; 100 to 1000 nM in test [8]. The molecule further registered an IC50 in test [2] of less than 1000 nM. The “Ki (P99/AmpC of ECL, NCF)” value in test [4] was “Z (Greater than 1 μM)”. For the same molecule, the “Ki (CTX-M-14, NCF)” value in test [5] was “X (Less than 0.1 μM)”.
Turning to `NCCOc1ccc2c(c1C(=O)O)OB(O)[C@@H](Sc1nnc(N)s1)C2` [Compound 79, (3R)-7-(2-aminoethoxy)-3-[(5-amino-1,3,4-thiadiazol-2-yl)sulfanyl]-2-hydroxy-3,4-dihydro-1,2-benzoxaborinine-8-carboxylic acid], the Ki in test [1] was greater than 100 nM; in test [3], greater than 100 nM; in test [6], less than 100 nM; in test [7] it was less than 100 nM; in test [8] it was greater than 1000 nM. In test [2], this molecule showed a concentration for half-maximal inhibition (IC50) of no less than 1000 nM. Further, in test [4], the “Ki (P99/AmpC of ECL, NCF)” value was “Y (0.1 μM to 1 μM)”. Also, in test [5], the “Ki (CTX-M-14, NCF)” value is given as “X (Less than 0.1 μM)”.
`COc1ccc2c(c1C(=O)O)OB(O)[C@@H](Sc1nnc(NCCN3CCNCC3)s1)C2` [Compound 98, (3R)-2-hydroxy-7-methoxy-3-[[5-(2-piperazin-1-ylethylamino)-1,3,4-thiadiazol-2-yl]sulfanyl]-3,4-dihydro-1,2-benzoxaborinine-8-carboxylic acid]: the inhibition constant Ki is 10 to 100 nM in test [1]; 10 to 100 nM in test [3]; less than 100 nM in test [6]; less than 100 nM in test [7]; 100 to 1000 nM in test [8]. The IC50 in test [2] is less than 1000 nM. In addition, the “Ki (P99/AmpC of ECL, NCF)” value in test [4] is listed as “Y (0.1 μM to 1 μM)”. Besides, the “Ki (CTX-M-14, NCF)” value in test [5] was “X (Less than 0.1 μM)”.
As to `COc1ccc2c(c1C(=O)O)OB(O)[C@@H](Sc1nc(N)n[nH]1)C2` [Compound 82, (3R)-3-[(3-amino-1H-1,2,4-triazol-5-yl)sulfanyl]-2-hydroxy-7-methoxy-3,4-dihydro-1,2-benzoxaborinine-8-carboxylic acid], the Ki is less than 10 nM in test [1]; less than 10 nM in test [3]; less than 100 nM in test [6]; less than 100 nM in test [7]; 100 to 1000 nM in test [8]. In test [2], this molecule registered an IC50 of less than 1000 nM. In addition, the “Ki (P99/AmpC of ECL, NCF)” value in test [4] is listed as “Y (0.1 μM to 1 μM)”. The “Ki (CTX-M-14, NCF)” value in test [5] was “X (Less than 0.1 μM)”.
On to `Nc1nnc(S[C@H]2Cc3c(F)c(F)c(F)c(C(=O)O)c3OB2O)s1` [Compound 38, (R)-3-(5-amino-1,3,4-thiadiazol-2-ylthio)-5,6,7-trifluoro-2-hydroxy-3,4-dihydro-2H-benzo[e][1,2]oxaborinine-8-carboxylic acid], for which the Ki in test [1] was greater than 100 nM; in test [3], greater than 100 nM; in test [6], less than 100 nM; in test [7] it was less than 100 nM; in test [8], greater than 1000 nM. Further, the half-maximal inhibitory concentration (IC50) in test [2] is no less than 1000 nM. In addition, the “Ki (P99/AmpC of ECL, NCF)” value in test [4] is reported as “Y (0.1 μM to 1 μM)”. Further, the “Ki (CTX-M-14, NCF)” value in test [5] is recorded as “X (Less than 0.1 μM)”.
On to `COc1ccc2c(c1C(=O)O)OB(O)[C@@H](Sc1ncns1)C2` [Compound 75, (3R)-2-hydroxy-7-methoxy-3-(1,2,4-thiadiazol-5-ylsulfanyl)-3,4-dihydro-1,2-benzoxaborinine-8-carboxylic acid], for which the Ki in test [1] was greater than 100 nM; in test [3], greater than 100 nM; in test [6], less than 100 nM; in test [7] it was less than 100 nM; in test [8] it was less than 100 nM. For the same molecule, the half-maximal inhibitory concentration (IC50) in test [2] was less than 1000 nM. In addition, the “Ki (P99/AmpC of ECL, NCF)” value in test [4] is given as “Y (0.1 μM to 1 μM)”. Further, the “Ki (CTX-M-14, NCF)” value in test [5] is “X (Less than 0.1 μM)”.
Consider `CSc1ccc2c(c1C(=O)O)OB(O)[C@@H](Sc1nncn1C)C2` [Compound 29, (R)-2-hydroxy-3-(4-methyl-4H-1,2,4-triazol-3-ylthio)-7-(methylthio)-3,4-dihydro-2H-benzo[e][1,2]oxaborinine-8-carboxylic acid], for which the inhibition constant (Ki) in test [1] was 10 to 100 nM; in test [3], 10 to 100 nM; in test [6] it was less than 100 nM; in test [7] it was less than 100 nM; in test [8], 100 to 1000 nM. In test [2], this molecule came in with a half-maximal inhibitory concentration (IC50) of less than 1000 nM. The “Ki (P99/AmpC of ECL, NCF)” value in test [4] is given as “Y (0.1 μM to 1 μM)”. Also, in test [5], the “Ki (CTX-M-14, NCF)” value is on record as “X (Less than 0.1 μM)”.
Consider `COc1ccc2c(c1C(=O)O)OB(O)[C@@H](Sc1nnc(NC(CN)CN)s1)C2` [Compound 102, (3R)-3-[[5-[[2-amino-1-(aminomethyl)ethyl]amino]-1,3,4-thiadiazol-2-yl]sulfanyl]-2-hydroxy-7-methoxy-3,4-dihydro-1,2-benzoxaborinine-8-carboxylic acid], for which the Ki in test [1] was less than 10 nM; in test [3], less than 10 nM; in test [6], less than 100 nM; in test [7] it was 100 to 1000 nM; in test [8], greater than 1000 nM. Also, in test [2], the IC50 is less than 1000 nM. For the same molecule, the “Ki (P99/AmpC of ECL, NCF)” value in test [4] is given as “Z (Greater than 1 μM)”. The “Ki (CTX-M-14, NCF)” value in test [5] was “X (Less than 0.1 μM)”.
Take `COc1ccc2c(c1C(=O)O)OB(O)[C@@H](Sc1nnc(NC3CCNCC3)s1)C2` [Compound 104, (3R)-2-hydroxy-7-methoxy-3-[[5-(4-piperidylamino)-1,3,4-thiadiazol-2-yl]sulfanyl]-3,4-dihydro-1,2-benzoxaborinine-8-carboxylic acid]: the Ki was less than 10 nM in test [1]; less than 10 nM in test [3]; less than 100 nM in test [6]; less than 100 nM in test [7]; less than 100 nM in test [8]. The molecule further returned an IC50 in test [2] of less than 1000 nM. For the same molecule, in test [4], the “Ki (P99/AmpC of ECL, NCF)” value was “Y (0.1 μM to 1 μM)”. For the same molecule, in test [5], the “Ki (CTX-M-14, NCF)” value is recorded as “X (Less than 0.1 μM)”.
Consider `COc1ccc2c(c1C(=O)O)OB(O)[C@@H](Sc1nnc(CN)n1N)C2` [Compound 66, (3R)-3-[[4-amino-5-(aminomethyl)-1,2,4-triazol-3-yl]sulfanyl]-2-hydroxy-7-methoxy-3,4-dihydro-1,2-benzoxaborinine-8-carboxylic acid], for which the inhibition constant (Ki) in test [1] is 10 to 100 nM; in test [3] it was 10 to 100 nM; in test [6] it was less than 100 nM; in test [7] it was 100 to 1000 nM; in test [8], 100 to 1000 nM. The molecule also registered an IC50 in test [2] of less than 1000 nM. Moreover, the “Ki (P99/AmpC of ECL, NCF)” value in test [4] is given as “Z (Greater than 1 μM)”. The “Ki (CTX-M-14, NCF)” value in test [5] is given as “X (Less than 0.1 μM)”.
As for `Nc1nnc(S[C@H]2Cc3ccc(OC(F)F)c(C(=O)O)c3OB2O)s1` [Compound 84, (3R)-3-[(5-amino-1,3,4-thiadiazol-2-yl)sulfanyl]-7-(difluoromethoxy)-2-hydroxy-3,4-dihydro-1,2-benzoxaborinine-8-carboxylic acid], the Ki in test [1] was 10 to 100 nM; in test [3], 10 to 100 nM; in test [6], less than 100 nM; in test [7] it was less than 100 nM; in test [8], 100 to 1000 nM. For the same molecule, the half-maximal inhibitory concentration (IC50) in test [2] is less than 1000 nM. In addition, in test [4], the “Ki (P99/AmpC of ECL, NCF)” value is “Y (0.1 μM to 1 μM)”. In addition, in test [5], the “Ki (CTX-M-14, NCF)” value is on record as “X (Less than 0.1 μM)”.
In the case of `COCCOc1ccc2c(c1C(=O)O)OB(O)[C@@H](Sc1nncs1)C2` [Compound 89, (3R)-2-hydroxy-7-(2-methoxyethoxy)-3-(1,3,4-thiadiazol-2-ylsulfanyl)-3,4-dihydro-1,2-benzoxaborinine-8-carboxylic acid], the Ki is 10 to 100 nM in test [1]; 10 to 100 nM in test [3]; less than 100 nM in test [6]; less than 100 nM in test [7]; 100 to 1000 nM in test [8]. The molecule also displayed an IC50 in test [2] of less than 1000 nM. In addition, the “Ki (P99/AmpC of ECL, NCF)” value in test [4] is given as “Z (Greater than 1 μM)”. Further, the “Ki (CTX-M-14, NCF)” value in test [5] is “X (Less than 0.1 μM)”.
Turning to `COc1ccc2c(c1C(=O)O)OB(O)[C@@H](Sc1c[nH]nn1)C2` [Compound 39, (R)-3-(1H-1,2,3-triazol-4-ylthio)-2-hydroxy-7-methoxy-3,4-dihydro-2H-benzo[e][1,2]oxaborinine-8-carboxylic acid], the Ki in test [1] was greater than 100 nM; in test [3], greater than 100 nM; in test [6], less than 100 nM; in test [7] it was less than 100 nM; in test [8], less than 100 nM. The molecule further gave an IC50 in test [2] of less than 1000 nM. In test [4], the “Ki (P99/AmpC of ECL, NCF)” value is “Y (0.1 μM to 1 μM)”. In addition, the “Ki (CTX-M-14, NCF)” value in test [5] is listed as “X (Less than 0.1 μM)”.

Values taken from patent US10206937B2, “Boronic acid derivatives and therapeutic uses thereof” (Qpex Biopharma, Inc., priority 2014, dated 2019).
